ChEMBL document CHEMBL1159022, “Isolation of Latrunculin A, 6,7-Epoxylatrunculin A, Fijianolide A, and Euryfuran from a New Genus of the Family Thorectidae” (J Nat Prod, 1992)
In brackets after ≈: the same amount, converted by molar mass.

Columns and labels:
[1] = Inhibition of PMA-induced mouse EL-4.IL-2 cell adhesion at 0.125 ug/ml; assay type: functional
[2] = system: Candida albicans; test: Antifungal activity against Candida albicans; assay type: functional
[3] = system: P388; test: Antiproliferative activity against mouse P388 cells; assay type: functional, cell-based
[4] = system: A549; test: Antiproliferative activity against human A549 cells; assay type: functional, cell-based
[5] = species: Mus musculus; test: Inhibition of mouse EL-4.IL-2 cell adhesion at 0.003 to 0.025 ug/ml in absence of PMA; assay type: functional; conditions: filed as agonist
[6] = Inhibition of PMA-induced mouse EL-4.IL-2 cell adhesion at 0.003 ug/ml; assay type: functional
[7] = Inhibition of PMA-induced mouse EL-4.IL-2 cell adhesion at 0.025 ug/ml; assay type: functional

IC50 [3] [µg/mL] | IC50 [4] [µg/mL] | Structure (SMILES) | inhibition at 0.125 µg/mL [1] [%] | MIC [2] [µg/mL] | Activity [5] | inhibition at 0.003 µg/mL [6] [%] | inhibition at 0.025 µg/mL [7] [%]
– | – | C/C1=C/C(=O)O[C@@H]2C[C@@H](CC[C@H](C)/C=C\C=C\CC1)O[C@@](O)([C@@H]1CSC(=O)N1)C2 [LATRUNCULIN A] | 50 | 15.6 (≈ 37 µM) | – | – | –
1.8 (≈ 4.11 µM) | 0.2 (≈ 0.457 µM) | C/C1=C/C(=O)O[C@@H]2C[C@@H](CC[C@H](C)/C=C\C3OC3CC1)O[C@@](O)([C@@H]1CSC(=O)N1)C2 (stereo partly drawn) [6,7-EPOXYLATRUNCULIN A] | – | 25 (≈ 57.1 µM) | – | 100 | –
1.6 (≈ 7.33 µM) | 1.5 (≈ 6.87 µM) | CC1(C)CCC[C@@]2(C)c3cocc3CC[C@H]12 [EURYFURAN] | – | – | – | – | 48

Structure (SMILES) | IC50 [3] [µg/mL] | IC50 [4] [µg/mL] | inhibition at 0.125 µg/mL [1] [%] | MIC [2] [µg/mL] | Activity [5] | inhibition at 0.003 µg/mL [6] [%] | inhibition at 0.025 µg/mL [7] [%]
C=C1C[C@H](C)C[C@@H]2CC=C[C@@H](C/C=C\C(=O)O[C@H]3C[C@@H](O[C@H]3/C=C/[C@@H]3CC(C)=CCO3)[C@@H](O)[C@@H](O)C1)O2 [FIJIANOLIDE A] | 1 (≈ 1.94 µM) | 1.4 (≈ 2.72 µM) | – | 6.2 (≈ 12 µM) | Agonist | – | –
